Measurements reported in PMC7714071, “Interaction of amyloid beta with humanin and acetylcholinesterase is modulated by ATP” (FEBS Open Bio, 2020).

How the values were obtained:
A549 cells = conditions: cited from earlier work
Protocol: Since addition of ATP appears to increase binding of HN to Aβ, and conversely, decreases the interaction of Aβ with AChE (Figs 3, 4, 5, 6), we tested the effect of added ATP on A549 and H1299 cell viability (Fig. 7). Exogenously added ATP at either 100 µM or 1 mM had no effect on viability of either A549 (Fig. 7A) or H1299 cells (Fig. 7B).

[1] = tested on: Aβ in A549 cell-conditioned media; test: ELISA, oligomer versus total Aβ in A549 cell-conditioned media; format: cell-based, human; conditions: Fig. 8A
Protocol: Aβ ELISAs were carried out according to previous protocols for determining the oligomeric and monomeric concentrations of Aβ and as we recently reported. Briefly, total Aβ (monomers + oligomers) was measured by two‐site binding ELISAs using the capture 6E10 monoclonal antibody and 4G8‐conjugated biotin as the detection antibody, which recognizes a distinct epitope, then quantitated using streptavidin‐HRP.
Using the same samples, oligomerized Aβ was measured by a single‐site ELISA in which antibodies targeting the same primary sequence epitope were used for both capture (4G8) and detection (4G8‐biotin). Only oligomers are detected with this approach since the 4G8‐biotin antibody cannot bind to the captured monomer because the epitope is blocked by the 4G8 capture antibody. Therefore, only oligomeric or multimeric Aβ containing additional exposed 4G8 epitopes, not engaged by the capture antibody, are reported by the streptavidin–HRP. The amount of the monomer was then estimated as the difference between the concentration of total Aβ and the concentration of the oligomer.
Conditioned media were immunodepleted (ID) according to the methods previously described and our recently published report. Briefly, specific antibodies were bound to ELISA wells overnight (1 : 1000 dilution). The wells were then blocked and washed, then 300 μL of the conditioned medium (0.5 μg·μL^−1) treated as indicated, 72 h postserum starvation, was incubated with the antibodies bound to ELISA wells for 24 h. The ID media were then carefully removed and analyzed for the presence of the target protein or peptide by ELISA. The same amount of protein (3 µL of 600 µg·mL^−1 total protein) of each sample was analyzed in the experiments. Significant depletion (95–100%) was observed upon using each of the antibodies employed in this study.
Both epitopes recognized by the 6E10 and 4G8 antibodies have been previously shown to be exposed in Aβ aggregates. […] To determine the effect of ID of AChE or HN on this ratio in the absence or presence of added ATP, 0.2 × 10^5 cells per well were seeded in 96‐well plates in 10% FBS‐supplemented media. The next day, the cells were incubated in serum‐free medium for 72 h, then ID of AChE or HN as described in Materials and methods. The antibodies 6E10 or 4G8 were bound (1 : 1000 dilution) to ELISA wells (Fig. 8). The wells were blocked, and then incubated with 300 μL of the ID medium (0.5 μg·μL^−1). Biotin‐4G8 was then added and the signal processed as described in Materials and methods section. Fold change relative to controls using anti‐6E10 or anti‐4G8 antibodies incubated with 300 μL of the medium not incubated with cells was calculated.
Cells (0.2 × 10^5) were grown in 10% FBS‐supplemented media for 24 h. The cells were then incubated in serum‐free medium for 72 h without or with ATP and the media collected and ID from either HN or AChE as described in Materials and methods section. The antibodies 6E10 or 4G8 were bound (1 : 1000 dilution) to ELISA wells. The wells were blocked, and then incubated with 300 μL of the control and ID medium (0.5 μg·μL^−1). Biotin‐4G8 was then added and the signal processed as described in Materials and methods section. Fold change relative to controls using anti‐6E10 and anti‐4G8 antibodies and 300 μL of the medium not incubated with cells was calculated. Data were processed using the […] 8.4.3 software. The graphs summarize the results expressed as means ± SD of three separate experiments, each performed in triplicate. […]

Molecule	effect of ATP on A549 cell viability (A549 cells; 100 μM or 1 mM ATP)	effect of ATP on relative amount of oligomer versus total Aβ ([1]; HN-immunodepleted A549 media, three experiments in triplicate)	effect of ATP on relative amount of oligomer versus total Aβ ([1]; non-depleted, HN-ID or AChE-ID media)	cell viability upon ID of HN (A549 cells; HN immunodepleted from A549 conditioned media)	apoptosis upon ID of HN (A549 cells; HN-ID A549 media)	oligomer, % of total Aβ remaining after HN ID ([1]; HN-immunodepleted A549 media (non-depleted ~ 63%))	total Aβ remaining after HN ID ([1]; HN-immunodepleted A549 media)
Nc1ncnc2c1ncn2[C@@H]1O[C@H](COP(=O)(O)OP(=O)(O)OP(=O)(O)O)[C@@H](O)[C@H]1O [ATP, Adenosine triphosphate]	no effect	does not affect	lack of effect	–	–	–	–
Humanin [HN]	–	–	–	diminished cell viability	increased apoptosis	~ 86%	~ 63%
